The subject of one assay is Male C57bl6 mice. Put plainly: CCl4-induced liver fibrosis: histology (Metavir score). It is filed as in vivo. The procedure:
Liver fibrosis was induced in Male C57bl6 mice (Charles River, l'Arbresle, France) by injection of carbon tetrachloride (CCl4). The C57bl6 mice weighed 22-25 g and were maintained in laboratory conditions for 1 week before experiment. Animals were housed 5 per cage with food and water available ad libitum.
The effectiveness of compound 34 (specific ligand of PPARg) as compared to JWH-133 (anti-fibrogenic agent) was evaluated. Compound 34 was administered orally in combination with CCl4 injections for ca. 5 weeks. Compound 34 was dosed daily at 200 uL of a 30 mM solution. JWH-133 was administered daily via intraperitoneal injections at 3 mg/kg (dose volume=100 uL). The model of liver fibrosis is induced by chronic exposure to increased dosages of CCl4 for 5 weeks. The first week, mice received an intraperitoneal injection of CCl4, resuspended in olive oil, at the dosage of 80 μl/kg of mice body weight twice a week. At week 2, 3 injections of CCl4 at the dosage of 160 μl/kg were performed every two days. At week 3, 3 injections of CCl4 at the dosage of 240 μl/kg were performed every two days. At week 4, 3 injections of CCl4 at the dosage of 320 μl/kg were performed every two days. Mice were euthanized, at week 5, 3 days after the last CCl4 administration.
The formalin-fixed liver tissue was processed and 5 μm thick paraffin sections were stained with hematoxylin and eosin (H&E) and Picrosirius red staining (specific coloration for collagen in tissue sections) to evaluate the degree of fibrosis in the liver. Each section was analyzed blindly by 3 different experimenters for the quantification of the degree of fibrosis for each lobe of the liver (5) using the Metavir score (see FIG. 2A for Metavir Score chart). The photographs seen in FIG. 2B were obtained with a 20× objective.

For another assay, the system named is Collagen-1. Description: Liver gene expression by quantitative Real Time PCR: collagen-1. The class given is in vivo, mice. The procedure: (§1) The effect of administration of compound 34 (GED) and the specific CB2 agonist (JWH-133) was evaluated on the level of gene expression of cytokines (IL-1β, TNF-α) and genes involved in the mechanism of fibrosis by quantitative Real Time PCR.
(§2) Total RNA was isolated from livers using Rneasy kit (Macherey Nagel, Hoerdt, France) according to the manufacturer's instructions. RNA quantification was performed using spectrophotometry. After treatment at 37° C. for 30 min with 20-50 units of RNase-free DNase I (Roche Diagnostics Corporation, Indianapolis, IN, USA), oligo-dT primers (Roche Diagnostics Corporation, Indianapolis, USA) were used to synthesize single-stranded cDNA. mRNAs were quantified using SYBR green Master Mix (Applera, Courtaboeuf, France) with murine specific oligonucleotides (see Table 2) in a GeneAmp Abiprism 7000 (Applera, Courtaboeuf, France). In each assay, calibrated and no-template controls were included. Each sample was run in triplicate. SYBR green dye intensity was analyzed using the Abiprism 7000 SDS software (Applera, Courtaboeuf, France). All results were normalized to the unaffected housekeeping gene β-actin.

The subject of the next assay is α-SMA. Description: Liver gene expression by quantitative Real Time PCR: α-SMA. It is filed as in vivo, mice. Conditions: liver mRNA, normalized to β-actin; CCl4 group 65.51 ± 22.24. The protocol: as §1, §2
(In general: Real-time PCR tracks product formation cycle by cycle.)

Take `CCCC(C)(C)c1ccc2c(c1)OC(C)(C)[C@@H]1CC=C(C)C[C@@H]21` [JWH-133]: in the assay with Male C57bl6 mice (FIG. 3B), the “decrease of the fibrotic score (adapted Metavir score) compared to untreated animals” value was determined as 14.2%. Besides, the “mean Metavir score (FIG. 3A)” value with Male C57bl6 mice (compound 34 30 mM 200 uL oral daily, JWH-133 3 mg/kg i.p. daily, CCl4 vehicle group 2.5±0.5) is listed as 2±0. Also, the “degree of fibrosis (Metavir)” value with Male C57bl6 mice (result in words) is listed as “decrease in the degree of fibrosis from severe to moderate fibrosis”. In addition, the “decrease of hepatic fibrotic lesions” value in the assay on Male C57bl6 mice (summary statement) is given as 14%. In addition, in the assay with Collagen-1 (CCl4 mice, result in words), the “liver concentration of collagen-1 mRNA” value is on record as “normalizes”. In the assay on Collagen-1 (liver mRNA, normalized to β-actin, CCl4 group 138.12 ± 34.68), this molecule registered a Collagen-1 of 87.59 ± 16.97. The molecule further yielded a α-SMA with α-SMA of 30.07 ± 4.7.

Values taken from patent US12291494B2, “Methods of treating fibrosis” (Nogra Pharma Limited, priority 2012, dated 2025).
